Assay results reported in publication PMC11222147, “Host defence peptide plectasin targets bacterial cell wall precursor lipid II by a calcium-sensitive supramolecular mechanism” (Nature Microbiology, 2024).
Where a SMILES comes first, the peptide text is derived from it. Bridges are numbered along the chain shown (N, C = ends).

Columns and labels:
[1] = tested on: S. simulans 22; assay: MIC assays under standard conditions; assay type: cell-based, Staphylococcus simulans; settings: Supplementary Table 1; cation-adjusted MHB, 37 °C, 16–20 h
Protocol: (§1) Plectasin and analogues were serially diluted in cation-adjusted Mueller–Hinton broth (MHB) in round-bottom polypropylene 96-well plates (50 µl per well). Selected bacterial strains were grown from glycerol stocks on blood agar plates. Individual colonies were inoculated in TSB and incubated at 37 °C while shaking until OD600 reached 0.5. Bacterial suspensions were then diluted 100 times in cation-adjusted MHB and distributed (50 μl per well) over the microplate containing the diluted plectasin solutions. Plates were covered by a gas-permeable adhesive membrane and incubated at 37 °C while shaking. MICs were determined by visual inspection after 16–20 h (Staphylococcus) or 20–24 h (Streptococcus). For Streptococcus strains, the broth was additionally supplemented with 5% lysed horse blood, and the microplates were incubated under 5% CO2 atmosphere. In the assays, we used the following strains: S. simulans, S. pneumoniae serotype 8, S. pneumoniae ATCC6305 and Streptococcus pyogenes M3.

[2] = tested on: S. pneumoniae ATCC6305; assay: MIC assays under standard conditions; assay type: cell-based, Streptococcus pneumoniae; settings: Supplementary Table 1; cation-adjusted MHB + 5% lysed horse blood, 5% CO2, 20–24 h
Protocol: as §1

[3] = Confocal microscopy of GUVs doped with Und-NBD-lipid II; settings: GUVs 0.4 mol% Und-NBD-LII in DOPC, 1 μM antibiotic
Protocol: GUVs were prepared by electroformation using in-house build Teflon cells with two titanium wires as electrodes. About 1 μl of 0.5 mM DOPC with 0.4 mol% NBD–lipid II in 2:1 CHCl3/MeOH was brushed on both electrodes and thoroughly dried under vacuum. Next, the cell was filled with 350 μl 300 mM sucrose, and GUVs were formed by applying an oscillating voltage (sine wave, 2 V, 10 Hz) for 90 min and released from the electrodes (square wave, 2 V, 2 Hz). Microscopy slides were precoated using a 1 mg ml^−1 BSA solution. Slides were filled with 300 μl 300 mM glucose solution, followed by addition of the antibiotic and finally 30–50 μl GUV solution. The GUVs were imaged using a Zeiss LSM 880 confocal microscope with a ×63/1.2NA glycerol objective lens. Green fluorescence (530–545 nm) was detected after excitation with a 488 nm laser.

Compound | Minimum inhibitory concentration, S. simulans [1] | Minimum inhibitory concentration, S. pneumoniae ATCC6305 [2] | lipid II cluster/domain formation on GUVs [3]
CC[C@H](C)[C@@H]1NC(=O)[C@H](CO)NC(=O)[C@H](CCCCN)NC(=O)[C@@H]2CSSC[C@@H](C(=O)N[C@@H](Cc3ccc(O)cc3)C(=O)O)NC(=O)[C@H](CCCCN)NC(=O)[C@@H]3CSSC[C@H](NC(=O)[C@H](CCC(N)=O)NC(=O)[C@H](CCSC)NC(=O)[C@H](CC(=O)O)NC(=O)[C@H](CC(=O)O)NC(=O)[C@H](CCC(=O)O)NC(=O)[C@H](CC(=O)O)NC(=O)[C@H](Cc4c[nH]c5ccccc45)NC(=O)[C@@H]4CCCN4C(=O)CNC(=O)[C@H](CC(N)=O)NC(=O)[C@@H](NC(=O)CNC(=O)[C@H](Cc4ccccc4)NC(=O)CN)CSSC[C@H](NC(=O)[C@H](C)NC(=O)CNC(=O)CNC(=O)[C@H](CCCCN)NC(=O)[C@H](Cc4ccc(O)cc4)NC(=O)CNC(=O)[C@H](CCCCN)NC1=O)C(=O)N[C@@H](C)C(=O)N[C@@H](CCCCN)C(=O)NCC(=O)NCC(=O)N[C@@H](Cc1ccccc1)C(=O)N[C@@H](C(C)C)C(=O)N3)C(=O)N[C@@H](Cc1c[nH]cn1)C(=O)N[C@@H](CC(N)=O)C(=O)N[C@@H](Cc1c[nH]cn1)C(=O)N2 [Y29A] (H-GFGCNGPWDEDDMQCHNHCKSIKGYKGGACAKGGFVCKCY-OH; disulfide 4-30, 15-37, 19-39 (inferred); N-terminus and C-terminus assumed) | 12,5 μg/mL | > 50 µg/mL | –
CC[C@H](C)[C@@H]1NC(=O)[C@H](CO)NC(=O)[C@H](CCCCN)NC(=O)[C@@H]2CSSC[C@@H](C(=O)N[C@@H](Cc3ccc(O)cc3)C(=O)O)NC(=O)[C@H](CCCCN)NC(=O)[C@@H]3CSSC[C@H](NC(=O)[C@H](CCC(N)=O)NC(=O)[C@H](CCSC)NC(=O)[C@H](CC(=O)O)NC(=O)[C@H](CC(=O)O)NC(=O)[C@H](CCC(=O)O)NC(=O)[C@H](CC(=O)O)NC(=O)[C@H](Cc4c[nH]c5ccccc45)NC(=O)[C@@H]4CCCN4C(=O)CNC(=O)[C@H](CC(N)=O)NC(=O)[C@@H](NC(=O)CNC(=O)[C@H](Cc4ccccc4)NC(=O)CN)CSSC[C@H](NC(=O)[C@H](Cc4ccccc4)NC(=O)CNC(=O)CNC(=O)[C@H](CCCCN)NC(=O)[C@H](Cc4ccc(O)cc4)NC(=O)CNC(=O)[C@H](CCCCN)NC1=O)C(=O)N[C@@H](C)C(=O)N[C@@H](CCCCN)C(=O)NCC(=O)NCC(=O)N[C@@H](Cc1ccccc1)C(=O)N[C@@H](C(C)C)C(=O)N3)C(=O)N[C@@H](Cc1c[nH]cn1)C(=O)N[C@@H](CC(N)=O)C(=O)N[C@@H](Cc1c[nH]cn1)C(=O)N2 [Y29F] (H-GFGCNGPWDEDDMQCHNHCKSIKGYKGGFCAKGGFVCKCY-OH; disulfide 4-30, 15-37, 19-39 (inferred); N-terminus and C-terminus assumed) | 1,56 μg/mL | ≤ 0.78 µg/mL | –
CC[C@H](C)[C@@H]1NC(=O)[C@H](CO)NC(=O)[C@H](CCCCN)NC(=O)[C@@H]2CSSC[C@@H](C(=O)N[C@@H](Cc3ccc(O)cc3)C(=O)O)NC(=O)[C@H](CCCCN)NC(=O)[C@@H]3CSSC[C@H](NC(=O)[C@H](CCC(N)=O)NC(=O)[C@H](CCSC)NC(=O)[C@H](CC(=O)O)NC(=O)[C@H](CC(=O)O)NC(=O)[C@H](CCC(=O)O)NC(=O)[C@H](CC(=O)O)NC(=O)[C@H](Cc4c[nH]c5ccccc45)NC(=O)[C@@H]4CCCN4C(=O)CNC(=O)[C@H](CC(N)=O)NC(=O)[C@@H](NC(=O)CNC(=O)[C@H](Cc4ccccc4)NC(=O)CN)CSSC[C@H](NC(=O)[C@H](CCCNC(=N)N)NC(=O)CNC(=O)CNC(=O)[C@H](CCCCN)NC(=O)[C@H](Cc4ccc(O)cc4)NC(=O)CNC(=O)[C@H](CCCCN)NC1=O)C(=O)N[C@@H](C)C(=O)N[C@@H](CCCCN)C(=O)NCC(=O)NCC(=O)N[C@@H](Cc1ccccc1)C(=O)N[C@@H](C(C)C)C(=O)N3)C(=O)N[C@@H](Cc1c[nH]cn1)C(=O)N[C@@H](CC(N)=O)C(=O)N[C@@H](Cc1c[nH]cn1)C(=O)N2 [Y29R] (H-GFGCNGPWDEDDMQCHNHCKSIKGYKGGRCAKGGFVCKCY-OH; disulfide 4-30, 15-37, 19-39 (inferred); N-terminus and C-terminus assumed) | 1,56 μg/mL | 1,56 μg/mL | –
CC[C@H](C)[C@@H]1NC(=O)[C@H](CO)NC(=O)[C@H](CCCCN)NC(=O)[C@@H]2CSSC[C@@H](C(=O)N[C@@H](Cc3ccccc3)C(=O)O)NC(=O)[C@H](CCCCN)NC(=O)[C@@H]3CSSC[C@H](NC(=O)[C@H](CCC(N)=O)NC(=O)[C@H](CCSC)NC(=O)[C@H](CC(=O)O)NC(=O)[C@H](CC(=O)O)NC(=O)[C@H](CCC(=O)O)NC(=O)[C@H](CC(=O)O)NC(=O)[C@H](Cc4c[nH]c5ccccc45)NC(=O)[C@@H]4CCCN4C(=O)CNC(=O)[C@H](CC(N)=O)NC(=O)[C@@H](NC(=O)CNC(=O)[C@H](Cc4ccccc4)NC(=O)CN)CSSC[C@H](NC(=O)[C@H](Cc4ccc(O)cc4)NC(=O)CNC(=O)CNC(=O)[C@H](CCCCN)NC(=O)[C@H](Cc4ccc(O)cc4)NC(=O)CNC(=O)[C@H](CCCCN)NC1=O)C(=O)N[C@@H](C)C(=O)N[C@@H](CCCCN)C(=O)NCC(=O)NCC(=O)N[C@@H](Cc1ccccc1)C(=O)N[C@@H](C(C)C)C(=O)N3)C(=O)N[C@@H](Cc1c[nH]cn1)C(=O)N[C@@H](CC(N)=O)C(=O)N[C@@H](Cc1c[nH]cn1)C(=O)N2 [Y40F] (H-GFGCNGPWDEDDMQCHNHCKSIKGYKGGYCAKGGFVCKCF-OH; disulfide 4-30, 15-37, 19-39 (inferred); N-terminus and C-terminus assumed) | 1,56 μg/mL | 0,78 μg/mL | –
CC[C@H](C)[C@@H]1NC(=O)[C@H](CO)NC(=O)[C@H](CCCCN)NC(=O)[C@@H]2CSSC[C@@H](C(=O)N[C@@H](CCCNC(=N)N)C(=O)O)NC(=O)[C@H](CCCCN)NC(=O)[C@@H]3CSSC[C@H](NC(=O)[C@H](CCC(N)=O)NC(=O)[C@H](CCSC)NC(=O)[C@H](CC(=O)O)NC(=O)[C@H](CC(=O)O)NC(=O)[C@H](CCC(=O)O)NC(=O)[C@H](CC(=O)O)NC(=O)[C@H](Cc4c[nH]c5ccccc45)NC(=O)[C@@H]4CCCN4C(=O)CNC(=O)[C@H](CC(N)=O)NC(=O)[C@@H](NC(=O)CNC(=O)[C@H](Cc4ccccc4)NC(=O)CN)CSSC[C@H](NC(=O)[C@H](Cc4ccc(O)cc4)NC(=O)CNC(=O)CNC(=O)[C@H](CCCCN)NC(=O)[C@H](Cc4ccc(O)cc4)NC(=O)CNC(=O)[C@H](CCCCN)NC1=O)C(=O)N[C@@H](C)C(=O)N[C@@H](CCCCN)C(=O)NCC(=O)NCC(=O)N[C@@H](Cc1ccccc1)C(=O)N[C@@H](C(C)C)C(=O)N3)C(=O)N[C@@H](Cc1c[nH]cn1)C(=O)N[C@@H](CC(N)=O)C(=O)N[C@@H](Cc1c[nH]cn1)C(=O)N2 [Y40R] (H-GFGCNGPWDEDDMQCHNHCKSIKGYKGGYCAKGGFVCKCR-OH; disulfide 4-30, 15-37, 19-39 (inferred); N-terminus and C-terminus assumed) | > 50 µg/mL | > 50 µg/mL | –
copsin | – | – | caused the formation of lipid II domains in liposomes
ramoplanin | – | – | caused the formation of lipid II domains in liposomes
teicoplanin | – | – | caused the formation of lipid II domains in liposomes
